Measurements taken from US11597724B2, “Herbicidally active 3-phenylisoxazoline-5-carboxamides of tetrahydro and dihydrofuran carboxylic acids and esters” (Bayer Aktiengesellschaft, priority 2017, dated 2023).

Assays:
Type in all cases: in vivo
Hordeum murinum = experiment: Pre-emergence herbicidal activity against HORMU; conditions: dosage 80 g/ha; for pest or weed control at 80 g/ha: Hordeum murinum, 504 h
Text: (§1) 1. Pre-Emergence Herbicidal Action and Crop Plant Compatibility Seeds of monocotyledonous and dicotyledonous weed plants and crop plants are placed in plastic or wood fiber pots and covered with soil. The compounds of the invention, formulated in the form of wettable powders (WP) or as emulsion concentrates (EC), are then applied onto the surface of the covering soil as aqueous suspension or emulsion with addition of 0.5% additive at a water application rate of 600 l/ha (converted). After the treatment, the pots are placed in a greenhouse and kept under good growth conditions for the trial plants. After about 3 weeks, the effect of the preparations is scored visually in comparison with untreated controls as percentages. For example, 100% activity=the plants have died, 0% activity=like control plants. ECHCG: Echinochloa crus-galli HORMU: Hordeum murinum

Polygonum convolvulus = experiment: Post-emergence herbicidal activity against POLCO; conditions: dosage 320 g/ha, rated about 3 weeks after treatment; for pest or weed control at 320 g/ha: Fallopia convolvulus, 504 h
In short: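 Greenhouse weeds in sandy loam were sprayed at the one-leaf stage, 2–3 weeks after sowing, with WP or EC formulations plus 0.5% additive at 600 l/ha water. About 3 weeks later, damage was rated visually against untreated controls, where 100% means plants dead and 0% means like control.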

[1] = Post-emergence treatment, summary over harmful plants; conditions: 504 h, application rate of 0.32 kg of active substance or less per hectare, read-out: herbicidal action, post-emergence treatment (very good herbicidal activity)
In short: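 Greenhouse-grown weeds and crops were sprayed at the one-leaf stage (2–3 weeks post-sowing) with WP or EC formulations plus 0.5% additive at 600 l/ha water. About 3 weeks later, activity was visually rated against untreated controls (100% = dead plants, 0% = like control).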

Veronica persica = experiment: Post-emergence herbicidal activity against VERPE; conditions: dosage 320 g/ha; for pest or weed control at 320 g/ha: Veronica persica, 504 h
In short: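 Greenhouse plants treated at one-leaf stage, 2–3 weeks after sowing, by spraying WP or EC formulations with 0.5% additive at 600 l/ha water. Visual rating about 3 weeks later versus untreated controls (100% = plants dead, 0% = like controls).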

Viola tricolor = experiment: Pre-emergence herbicidal activity against VIOTR; conditions: dosage 80 g/ha
Text: as §1, with “VIOTR: Viola tricolor” for “ECHCG: Echinochloa crus-galli HORMU: Hordeum murinum”

Pharbitis purpurea = experiment: Pre-emergence herbicidal activity against PHBPU; conditions: dosage 80 g/ha; for pest or weed control at 80 g/ha: Ipomoea purpurea, 504 h
Text: as §1, with “LOLRI: Lolium rigidum PHBPU: Pharbitis purpurea” for “ECHCG: Echinochloa crus-galli HORMU: Hordeum murinum”

SMILES	pest or weed control at 80 g/ha (Hordeum murinum) [%]	pest or weed control at 320 g/ha (Polygonum convolvulus) [%]	pest or weed control at 320 g/ha [1] [%]	pest or weed control at 320 g/ha (Veronica persica) [%]	Pre-emergence herbicidal activity against VIOTR in % (Viola tricolor) [%]	pest or weed control at 80 g/ha (Pharbitis purpurea) [%]	Pre-emergence herbicidal activity against HORMU in % (Hordeum murinum) [%]	Post-emergence herbicidal activity against POLCO in % (Polygonum convolvulus) [%]	Post-emergence herbicidal activity against VERPE in % (Veronica persica) [%]	Pre-emergence herbicidal activity against PHBPU in % (Pharbitis purpurea) [%]
C=C[C@]1(C(=O)N[C@H]2CO[C@@H](C(=O)OC)C2)CC(c2cc(F)cc(F)c2)=NO1 (mixture of isomers) [I-10, methyl cis-4-[[(5S)-3-(3,5-difluorophenyl)-5-vinyl-4H-isoxazole-5-carbonyl]amino]tetrahydrofuran-2-carboxylate]	100	80	80 to 100	80	100	80	–	–	–	–
C=C[C@]1(C(=O)N[C@H]2CO[C@@H](C(=O)OCC)C2)CC(c2cc(F)cc(F)c2)=NO1 (mixture of isomers) [I-35, ethyl cis-4-[[(5S)-3-(3,5-difluorophenyl)-5-vinyl-4H-isoxazole-5-carbonyl]amino]tetrahydrofuran-2-carboxylate]	100	–	80 to 100	80	100	90	–	–	–	–
C=C[C@]1(C(=O)N[C@H]2CO[C@@H](C(=O)OC(C)C)C2)CC(c2cc(F)cc(F)c2)=NO1 (mixture of isomers) [I-36, isopropyl cis-4-[[(5S)-3-(3,5-difluorophenyl)-5-vinyl-4H-isoxazole-5-carbonyl]amino]tetrahydrofuran-2-carboxylate]	90	80	80 to 100	90	100	90	–	–	–	–
C=C[C@]1(C(=O)N[C@H]2CO[C@@H](C(=O)OCc3ccccc3)C2)CC(c2cc(F)cc(F)c2)=NO1 (mixture of isomers) [I-37, benzyl cis-4-[[(5S)-3-(3,5-difluorophenyl)-5-vinyl-4H-isoxazole-5-carbonyl]amino]tetrahydrofuran-2-carboxylate]	100	–	80 to 100	80	100	90	–	–	–	–
C=C[C@]1(C(=O)N[C@H]2CO[C@@H](C(=O)OC(C)(C)C)C2)CC(c2cc(F)cc(F)c2)=NO1 (mixture of isomers) [I-38, tert-butyl cis-4-[[(5S)-3-(3,5-difluorophenyl)-5-vinyl-4H-isoxazole-5-carbonyl]amino]tetrahydrofuran-2-carboxylate]	90	–	80 to 100	80	100	–	–	–	–	–
CC1(C(=O)NC2COC(C(=O)O)C2)CC(c2cc(F)cc(F)c2)=NO1 (mixture of isomers) [I-41]	–	–	–	–	–	–	100	90	80	90
CC(C)(C)OC(=O)C1CC(NC(=O)C2(C)CC(c3cc(F)cc(F)c3)=NO2)CO1 (mixture of isomers) [I-42]	–	–	–	–	100	–	100	80	80	90
CCOC(=O)C1CC(NC(=O)C2(C)CC(c3cc(F)cc(F)c3)=NO2)CO1 (mixture of isomers) [I-43]	–	–	–	–	90	–	90	80	90	–
CC1(C(=O)NC2COC(C(=O)OCc3ccccc3)C2)CC(c2cc(F)cc(F)c2)=NO1 (mixture of isomers) [I-45]	–	–	–	–	100	–	100	80	80	90
COC(=O)C1CC(NC(=O)C2(C)CC(c3cc(F)cc(F)c3)=NO2)CO1 (mixture of isomers) [I-48]	–	–	–	–	100	–	100	80	80	90
COC(=O)[C@H]1C[C@@H](NC(=O)C2(C(F)(F)F)CC(c3cc(F)cc(F)c3)=NO2)CO1 (relative stereo) [I-06, methyl cis-4-[[3-(3,5-difluorophenyl)-5-(trifluoromethyl)-4H-isoxazole-5-carbonyl]amino]tetrahydrofuran-2-carboxylate]	–	80	80 to 100	80	80	80	–	–	–	–
C=C[C@]1(C(=O)N[C@H]2CO[C@@H](C(=O)OC)C2)CC(c2cc(F)cc(F)c2)=NO1 (single isomer, unassigned) [I-11]	–	90	–	–	100	100	100	–	–	–
C=C[C@]1(C(=O)N[C@H]2CO[C@@H](C(=O)OC)C2)CC(c2cc(F)cc(F)c2)=NO1 (single isomer, unassigned) [I-12]	100	–	80 to 100	–	100	–	–	90	–	–
C=C[C@]1(C(=O)NC2COCC2C(=O)OC)CC(c2cc(F)cc(F)c2)=NO1 (stereo partly drawn) [I-26, methyl 4-[[(5S)-3-(3,5-difluorophenyl)-5-vinyl-4H-isoxazole-5-carbonyl]amino]tetrahydrofuran-3-carboxylate]	–	–	80 to 100	90	–	90	–	–	–	–
COC(=O)C1COCC1NC(=O)C1(OC)CC(c2cc(F)cc(F)c2)=NO1 (centres unmarked) [I-27, methyl 4-[[3-(3,5-difluorophenyl)-5-methoxy-4H-isoxazole-5-carbonyl]amino]tetrahydrofuran-3-carboxylate]	–	80	80 to 100	80	90	–	–	–	–	–
COC(=O)C1COCC1NC(=O)[C@@]1(C)CC(c2cc(F)cc(F)c2)=NO1 (stereo partly drawn) [I-28, methyl 4-[[(5R)-3-(3,5-difluorophenyl)-5-methyl-4H-isoxazole-5-carbonyl]amino]tetrahydrofuran-3-carboxylate]	–	80	80 to 100	90	–	90	–	–	–	–
CC(C)OC(=O)C1CC(NC(=O)C2(C)CC(c3cc(F)cc(F)c3)=NO2)CO1 (centres unmarked) [I-44]	–	–	–	–	80	–	100	80	80	80
COC(=O)C1CC(NC(=O)C2(C(C)(F)F)CC(c3cc(F)cc(F)c3)=NO2)CO1 (centres unmarked) [I-49]	–	–	–	–	100	–	100	80	80	90
